According to patent US6992079B2, “Substituted 11-phenyl-dibenzazepine compounds useful for the treatment or prevention of diseases characterized by abnormal cell proliferation” (President Fellows of Harvard College, priority 1997, dated 2006):
Read-outs that look alike come from different tables or passages of the source.

Tests used:
[1] = test system: MALM-3M; experiment: In-Vitro Testing SRB panel: Melanoma; type: cell-based; settings: MALM-3M
[2] = test system: UACC-257; experiment: In-Vitro Testing SRB panel: Melanoma; type: cell-based
[3] = test system: RXF 393; experiment: In-Vitro Testing SRB panel: Renal Cancer; type: cell-based
[4] = test system: TK-10; experiment: In-Vitro Testing SRB panel: Renal Cancer; type: cell-based
[5] = test system: NCI/ADR-RES; experiment: In-Vitro Testing SRB panel: Breast Cancer; type: cell-based
[6] = test system: HS 578T; experiment: In-Vitro Testing SRB panel: Breast Cancer; type: cell-based; settings: HS 578T
[7] = test system: MDA-N; experiment: In-Vitro Testing SRB panel: Breast Cancer; type: cell-based
[8] = test system: ERVX
[9] = Homo sapiens, read-out: LC50 (the source's name)

SMILES: COc1ccc2c(c1)CN(C(=O)c1ccc([N+](=O)[O-])cc1)c1ccc(Cl)cc1C2c1ccccc1Cl (centres unmarked) [Compound 30]
- Percent Growth ([1]; Log10 concentration −4.0 Molar): −4%
- Percent Growth ([1]; Log10 concentration −5.0 Molar): 49%
- Percent Growth ([1]; Log10 concentration −6.0 Molar): 16%
- Percent Growth ([1]; Log10 concentration −7.0 Molar): 82%
- Percent Growth ([1]; Log10 concentration −8.0 Molar): 96%
- GI50 ([2]; Homo sapiens, UACC-257): 1.86 µM
- CC50 ([2]; Homo sapiens, UACC-257, read-out: LC50 (the source's name)): > 100 µM
- TGI ([2]; UACC-257): >1.00E−04 Molar
- Percent Growth ([2]; UACC-257, Log10 concentration −4.0 Molar): 13%
- Percent Growth ([2]; UACC-257, Log10 concentration −5.0 Molar): 20%
- Percent Growth ([2]; UACC-257, Log10 concentration −6.0 Molar): 61%
- Percent Growth ([2]; UACC-257, Log10 concentration −7.0 Molar): 91%
- Percent Growth ([2]; UACC-257, Log10 concentration −8.0 Molar): 99%
- GI50 ([3]; Homo sapiens, RXF 393): 3.4 µM
- CC50 ([3]; Homo sapiens, RXF 393, read-out: LC50 (the source's name)): > 100 µM
- TGI ([3]; RXF 393): >1.00E−04 Molar
- Percent Growth ([3]; RXF 393, Log10 concentration −4.0 Molar): 20%
- Percent Growth ([3]; RXF 393, Log10 concentration −5.0 Molar): 23%
- Percent Growth ([3]; RXF 393, Log10 concentration −6.0 Molar): 81%
- Percent Growth ([3]; RXF 393, Log10 concentration −7.0 Molar): 97%
- Percent Growth ([3]; RXF 393, Log10 concentration −8.0 Molar): 90%
- GI50 ([4]; Homo sapiens, TK-10): 27 µM
- CC50 ([4]; Homo sapiens, TK-10, read-out: LC50 (the source's name)): > 100 µM
- TGI ([4]; TK-10): >1.00E−04 Molar
- Percent Growth ([4]; TK-10, Log10 concentration −4.0 Molar): 41%
- Percent Growth ([4]; TK-10, Log10 concentration −5.0 Molar): 57%
- Percent Growth ([4]; TK-10, Log10 concentration −6.0 Molar): 93%
- Percent Growth ([4]; TK-10, Log10 concentration −7.0 Molar): 101%
- Percent Growth ([4]; TK-10, Log10 concentration −8.0 Molar): 100%
- TGI [5]: >1.00E−04 Molar
- GI50 ([5]; Homo sapiens): 62.4 µM
- CC50 [5, 9]: > 100 µM
- Percent Growth ([5]; Log10 concentration −4.0 Molar): 47%
- Percent Growth ([5]; Log10 concentration −5.0 Molar): 61%
- Percent Growth ([5]; Log10 concentration −6.0 Molar): 104%
- Percent Growth ([5]; Log10 concentration −7.0 Molar): 117%
- Percent Growth ([5]; Log10 concentration −8.0 Molar): 124%
- TGI [6]: >1.00E−04 Molar
- Percent Growth ([6]; Log10 concentration −4.0 Molar): 11%
- Percent Growth ([6]; Log10 concentration −5.0 Molar): 51%
- Percent Growth ([6]; Log10 concentration −6.0 Molar): 30%
- Percent Growth ([6]; Log10 concentration −7.0 Molar): 91%
- Percent Growth ([6]; Log10 concentration −8.0 Molar): 87%
- CC50 [6, 9]: > 100 µM
- TGI [7]: >1.00E−04 Molar
- CC50 [7, 9]: > 100 µM
- Percent Growth ([7]; Log10 concentration −4.0 Molar): 51%
- Percent Growth ([7]; Log10 concentration −5.0 Molar): 39%
- Percent Growth ([7]; Log10 concentration −6.0 Molar): 83%
- Percent Growth ([7]; Log10 concentration −7.0 Molar): 93%
- Percent Growth ([7]; Log10 concentration −8.0 Molar): 101%
- TGI ([8]; ERVX): >1.00E−04 Molar
- Percent Growth ([8]; ERVX, Log10 concentration −4.0 Molar): 18%
- Percent Growth ([8]; ERVX, Log10 concentration −5.0 Molar): 23%
- Percent Growth ([8]; ERVX, Log10 concentration −6.0 Molar): 78%
- Percent Growth ([8]; ERVX, Log10 concentration −7.0 Molar): 96%
- Percent Growth ([8]; ERVX, Log10 concentration −8.0 Molar): 92%
- GI50 ([8]; Homo sapiens): 3.24 µM
- CC50 ([8]; Homo sapiens, read-out: LC50): > 100 µM
